This is an account of results in US20130090476A1, “Thiazolylpiperidine Derivatives as Fungicides” (priority 2009, published 2013).

A short description of data set [1]: physchem. Particulars: pH 2.7.
Data set [2] concerns Phytophthora infestans. As to the kind of experiment: whole plant or invertebrate. Conditions: in Solanum lycopersicum, 168 h, read-out: efficacy. It counts as in vivo.
The nature of data set [3]: logP determination by HPLC (EEC Directive 79/831 Annex V.A8), LC-MS.

On to `CC(C)(C)OC(=O)N1CCC(c2nc(CSC(=N)N)cs2)CC1` [IX-1, Amino[({2-[1-(tert-butoxycarbonyl)piperidin-4-yl]-1,3-thiazol-4-yl}methyl)sulphanyl]methaniminium iodide], for which, in data set [1], the chromatographic logP (commonly a lipophilicity value derived from retention on a column) stood at 1.44.
Take `Cc1cc(C(F)(F)F)nn1CC(=O)N1CCC(c2nc(CS(=O)(=O)c3nnnn3-c3ccccc3)cs2)CC1` [Compound I-8, 2-[5-Methyl-3-(trifluoromethyl)-1H-pyrazol-1-yl]-1-[4-(4-{[(1-phenyl-1H-tetrazol-5-yl)sulphonyl]methyl}-1,3-thiazol-2-yl)piperidin-1-yl]ethanone]: in data set [2], the pest or weed control at 500 ppm is ≥ 70%. Besides, the chromatographic logP in data set [3] (pH 2.7, log P (pH2.7), pH 2.7, value given in the preparation text) is 3.1; in data set [3] (pH 2.7, logP, * acidic range, pH 2.7, 0.1% aqueous formic acid/acetonitrile) it was 3.07.
